Measurements from patent US20250230193A1, “CYCLIC COMPOUND HAVING SELECTIVE KRAS INHIBITORY EFFECT ON HRAS AND NRAS” (CHUGAI SEIYAKU KABUSHIKI KAISHA, priority 2022, published 2025).
Where a SMILES comes first, the peptide text is derived from it. Bridges are numbered along the chain shown (N, C = ends). [ ]: non-standard residue; d: D form. The star is where a group is joined. hPhe(3-Cl-4-CF3) = N[C@@H](CCc1ccc(C(F)(F)F)c(Cl)c1)C(=O)O; NPrPhe(4-CF3) = CCCN[C@@H](Cc1ccc(C(F)(F)F)cc1)C(=O)O; NEtPhe(4-CF3) = CCN[C@@H](Cc1ccc(C(F)(F)F)cc1)C(=O)O; hPhe(3,4-Cl2) = N[C@@H](CCc1ccc(Cl)c(Cl)c1)C(=O)O; NMeGly(cPent) = CN[C@H](C(=O)O)C1CCCC1; Gly(cBu) = N[C@H](C(=O)O)C1CCC1; NMeD = CN[C@@H](CC(=O)O)C(=O)O; NMeL = CN[C@@H](CC(C)C)C(=O)O; Morpholide = C1CN(*)CCO1; NMeA = CN[C@@H](C)C(=O)O; Piperidide = C1CCN(*)CC1; Ac5c = NC1(C(=O)O)CCCC1; Aze = O=C(O)[C@@H]1CCN1; Sar = CNCC(=O)O

Columns and labels:
[1] = target: GDP-bound HRAS wild-type protein (Homo sapiens, UniProt P01112); test: Binding to HRAS by surface plasmon resonance (SPR), Single Cycle Kinetics; conditions: SPR
GDP-bound HRAS wild-type protein, sequence (P01112 whole entry): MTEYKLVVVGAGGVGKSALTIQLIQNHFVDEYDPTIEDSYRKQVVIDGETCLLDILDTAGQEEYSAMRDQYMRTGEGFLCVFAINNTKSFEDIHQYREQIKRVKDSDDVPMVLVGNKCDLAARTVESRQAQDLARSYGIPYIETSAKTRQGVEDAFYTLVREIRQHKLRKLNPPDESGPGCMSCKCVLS

[2] = target: GDP-bound NRAS wild-type protein (Homo sapiens, UniProt P01111); test: Binding to NRAS by surface plasmon resonance (SPR), Single Cycle Kinetics; conditions: SPR
GDP-bound NRAS wild-type protein, sequence (P01111 whole entry): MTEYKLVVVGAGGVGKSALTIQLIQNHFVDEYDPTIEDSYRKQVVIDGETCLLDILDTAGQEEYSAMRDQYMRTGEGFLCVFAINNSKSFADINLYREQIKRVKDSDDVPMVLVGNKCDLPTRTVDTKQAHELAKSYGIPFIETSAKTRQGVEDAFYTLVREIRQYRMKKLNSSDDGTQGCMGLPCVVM

[3] = KD ratio, GDP-bound HRAS wild-type vs GDP-bound KRAS wild-type
[4] = KD ratio, GDP-bound NRAS wild-type vs GDP-bound KRAS wild-type

SMILES: CCC[C@H]1C(=O)N[C@@H](C2CCCC2)C(=O)N(C)CC(=O)N(C)[C@H]2C/C=C\CCN(C2=O)[C@@H](Cc2ccc(C)cc2)C(=O)N(C)CC(=O)N[C@@H](CCc2ccc(C(F)(F)F)c(OC)c2)C(=O)N2CC3(CC3)C[C@H]2C(=O)NC2(CC(C)(C)C2)C(=O)N(C)[C@@H](C2CCCC2)C(=O)N(C)[C@H](C(=O)N(C)C)CC(=O)N1C [PP2994]
- HRAS/KRAS (ratio of KD value with respect to GDP-bound HRAS wild-type protein to KD value with respect to KRAS) ([1]; GDP-bound wild-type proteins): A (a compound having 10 or more and less than 20 is denoted as A)
- NRAS/KRAS (ratio of KD value with respect to GDP-bound NRAS wild-type protein to KD value with respect to KRAS) ([2]; GDP-bound wild-type proteins): AA (a compound having 20 or more is denoted as AA)

SMILES: CCO[C@@H]1C[C@H]2C(=O)NC3(CCC3)C(=O)N(C)[C@@H](C3CCCC3)C(=O)N(C)[C@H](C(=O)N3CCOCC3)CC(=O)N(C)[C@@H](CC)C(=O)N[C@@H]([C@@H](C)CC)C(=O)N(C)CC(=O)N(C)[C@H]3CCCCN(C3=O)[C@@H](Cc3ccc(C(F)(F)F)cc3)C(=O)N(C)CC(=O)N[C@@H](CCc3cc(F)c(C(F)(F)F)c(F)c3)C(=O)N2C1 [PP0708]
- HRAS/KRAS (ratio of KD value with respect to GDP-bound HRAS wild-type protein to KD value with respect to KRAS) [1]: B (a compound having 3 or more and less than 10 is denoted as B)
- NRAS/KRAS (ratio of KD value with respect to GDP-bound NRAS wild-type protein to KD value with respect to KRAS) [2]: B (a compound having 3 or more and less than 10 is denoted as B)

SMILES: CCO[C@@H]1C[C@H]2C(=O)NC3(CCC3)C(=O)N(C)[C@@H](C(CC)CC)C(=O)N(C)[C@H](CC)CC(=O)N(C)[C@@H](CC)C(=O)N[C@@H]([C@@H](C)CC)C(=O)N(C)CC(=O)N(C)[C@H]3C/C=C\CCN(C3=O)[C@@H](Cc3ccc(C(F)(F)F)cc3)C(=O)N(C)CC(=O)N[C@@H](CCc3cc(F)c(C(F)(F)F)c(F)c3)C(=O)N2C1 [PP1624]
- HRAS/KRAS (ratio of KD value for HRAS to KD value for KRAS) [1, 3]: A (a compound having 10 or more and less than 20 is denoted as A)
- NRAS/KRAS (ratio of KD value for NRAS to KD value for KRAS) [2, 4]: A (a compound having 10 or more and less than 20 is denoted as A)

SMILES: CC[C@H](C)[C@@H]1NC(=O)[C@H](CC(C)C)N(C)C(=O)C[C@@H](C(=O)N2CCOCC2)N(C)C(=O)[C@H](C2CCCC2)N(C)C(=O)C2(CCCC2)NC(=O)[C@@H]2CCCN2C(=O)[C@H](CCc2ccc(Cl)c(Cl)c2)NC(=O)CN(C)C(=O)[C@H](Cc2ccc(C(F)(F)F)cc2)N(CC)C(=O)[C@@H]2CCN2C(=O)[C@H](C)N(C)C1=O [PP0223] ([NMeL]I[NMeA][Aze][NEtPhe(4-CF3)][Sar][hPhe(3,4-Cl2)]P[Ac5c][NMeGly(cPent)][NMeD]-Morpholide; lactam N-11)
- HRAS/KRAS (ratio of KD for GDP-bound HRAS wild-type to KD for KRAS) [1]: C (A compound having a KD ratio of 0.1 or more and less than 3 is denoted as C)
- NRAS/KRAS (ratio of KD for GDP-bound NRAS wild-type to KD for KRAS) [2]: C (A compound having a KD ratio of 0.1 or more and less than 3 is denoted as C)

SMILES: CCO[C@@H]1C[C@H]2C(=O)NC3(CCC3)C(=O)N(C)[C@@H](C3CCCC3)C(=O)N(C)[C@H](C(=O)N3CCOCC3)CC(=O)N(C)[C@@H](Cc3cscn3)C(=O)N[C@@H]([C@@H](C)CC)C(=O)N(C)CC(=O)N(C)[C@H]3CCCCCN(C3=O)[C@@H](Cc3ccc(C(F)(F)F)cc3)C(=O)N(C)CC(=O)N[C@@H](CCc3cc(F)c(C(F)(F)F)c(F)c3)C(=O)N2C1 [PP0855]
- HRAS/KRAS (ratio of KD value with respect to HRAS to KD value with respect to KRAS) [1, 3]: B (a compound having 3 or more and less than 10 is denoted as B)
- NRAS/KRAS (ratio of KD value with respect to NRAS to KD value with respect to KRAS) [2, 4]: B (a compound having 3 or more and less than 10 is denoted as B)

SMILES: CCCN1C(=O)[C@@H]2CCN2C(=O)[C@H](C)N(C)C(=O)[C@H]([C@@H](C)CC)NC(=O)[C@H](CC(C)C)N(C)C(=O)C[C@@H](C(=O)N2CCCCC2)N(C)C(=O)[C@H](C2CCCC2)N(C)C(=O)C2(CCCC2)NC(=O)[C@@H]2CCCN2C(=O)[C@H](CCc2ccc(C(F)(F)F)c(Cl)c2)NC(=O)CN(C)C(=O)[C@@H]1Cc1ccc(C(F)(F)F)cc1 [PP0180] ([NMeL]I[NMeA][Aze][NPrPhe(4-CF3)][Sar][hPhe(3-Cl-4-CF3)]P[Ac5c][NMeGly(cPent)][NMeD]-Piperidide; lactam N-11)
- HRAS/KRAS (ratio of KD for GDP-bound HRAS wild-type to KD for KRAS) [1]: C (A compound having a KD ratio of 0.1 or more and less than 3 is denoted as C)
- NRAS/KRAS (ratio of KD for GDP-bound NRAS wild-type to KD for KRAS) [2]: C (A compound having a KD ratio of 0.1 or more and less than 3 is denoted as C)

SMILES: CCCN1C(=O)CN(C)C(=O)CN(C)C(=O)[C@H](C2CCC2)NC(=O)[C@H](CC(C)C)N(C)C(=O)C[C@@H](C(=O)N2CCOCC2)N(C)C(=O)[C@H](C2CCCC2)N(C)C(=O)C2(CCCC2)NC(=O)[C@@H]2CCCN2C(=O)[C@H](CCc2ccc(C(F)(F)F)c(Cl)c2)NC(=O)CN(C)C(=O)[C@@H]1Cc1ccc(C(F)(F)F)cc1 [PP0250] ([NMeL][Gly(cBu)][Sar][Sar][NPrPhe(4-CF3)][Sar][hPhe(3-Cl-4-CF3)]P[Ac5c][NMeGly(cPent)][NMeD]-Morpholide; lactam N-11)
- HRAS/KRAS (ratio of KD for GDP-bound HRAS wild-type to KD for KRAS) [1]: C (A compound having a KD ratio of 0.1 or more and less than 3 is denoted as C)
- NRAS/KRAS (ratio of KD for GDP-bound NRAS wild-type to KD for KRAS) [2]: B (a compound having 3 or more and less than 10 is denoted as B)
